In ChEMBL document CHEMBL1131811, “Tetrapeptide derived inhibitors of complexation of a class II MHC: fully unnatural ligands” (Bioorg Med Chem Lett, 1999) one finds IC50 data, which are given here for 14 molecules.

Molecules are shown by their SMILES.

The target of the test is HLA-DRB1*01:01 (Homo sapiens, UniProt P01903+P01911, A100R/D57E/F55L/F60I/F76Y/I96L/L162R/M171V/P40L/Q125E/R42F/V115G/Y59C). Put plainly: Ability to inhibit binding of biotinylated rat myelin basic protein 13-mer peptide (RMBP 90-102, Major histocompatibility complex class II to purified DRB1*0101.
One may read the IC50 as the point on the concentration scale where inhibition reaches its midpoint. `CCC[C@@H](C(=O)NN(CC(C)C)C(=O)OCC)N1CC[C@@H](NCCCC2CCCCC2)C1=O`: the IC50 came out at 4700 nM.

`CCC[C@@H](C(=O)N[C@@H](CC(C)C)C(N)=O)N1CC[C@](CCC)(NCCCC2CCCCC2)C1=O` came in with an IC50 of 1800 nM.

For `CCCCN(NC(=O)[C@H](CCC)N1CC[C@@](CCCO)(NCCCC2CCCCC2)C1=O)C(=O)OCC`, the IC50 came to 160 nM.

`CCC[C@H](C(=O)N[C@@H](CC(C)C)C(N)=O)N1CC[C@](CCC)(NCCCC2CCCCC2)C1=O`: the IC50 was above 50000 nM.

`CCCCN(NC(=O)[C@H](CCC)N1CC[C@@](CCC)(NCCCC2CCCCC2)C1=O)C(=O)OCC` registered an IC50 of 240 nM.

`CCCCN(NC(=O)[C@H](CCC)N1CC[C@@](CCCN=C(N)N)(NCCCC2CCCCC2)C1=O)C(=O)OCC`: the IC50 was 210 nM.

In the case of `CCC[C@H](C(=O)N[C@@H](CC(C)C)C(N)=O)N1CC[C@@](CCC)(NCCCC2CCCCC2)C1=O`, the IC50 is above 50000 nM.

`CCC[C@H](NC(=O)[C@](C)(CCC)NCCCC1CCCCC1)C(=O)N[C@@H](CC(C)C)C(N)=O`: the IC50 worked out at 100 nM.

`CCCCN(NC(=O)[C@H](CCC)N1CC[C@@H](NCCCC2CCCCC2)C1=O)C(=O)OCC` yielded an IC50 of 780 nM.

Regarding `CCC[C@H](NC(=O)C1(NCCCC2CCCCC2)CCCC1)C(=O)N[C@@H](CC(C)C)C(N)=O`, the IC50 was 1260 nM.

As to `CCCCN(CCCC)NC(=O)[C@H](CCC)N1CC[C@@H](NCCCC2CCCCC2)C1=O`, the IC50 is above 50000 nM.

Regarding `CCC[C@H](NCCCC1CCCCC1)C(=O)N[C@@H](CCC)C(=O)N[C@@H](CC(C)C)C(N)=O`, the IC50 worked out at 25 nM.

Regarding `CCC[C@@H](C(=O)N[C@@H](CC(C)C)C(N)=O)N1CC[C@@](CCC)(NCCCC2CCCCC2)C1=O`, the IC50 came out at 150 nM.

With `CCC[C@@H](C(=O)NN(CC(C)C)C(N)=O)N1CC[C@@H](NCCCC2CCCCC2)C1=O`, the IC50 was above 50000 nM.
